Test results taken from US11021481B2, “Substituted isoindolin-1-ones and 2,3-dihydro-1h-pyrrolo[3,4-c]pyridin-1-ones as HPK1 antagonists” (Nimbus Saturn, Inc., priority 2019, dated 2021).

The compounds below were run against HPK1 (Homo sapiens (Human), UniProt Q92918) (assay: HPK1 biochemical enzyme assay (microfluidic mobility shift assay)). Conditions: 1.5 nM HPK1, ATP 1 mM final, 30 min preincubation, 60 min at RT, Caliper EZ Reader; read-out: HPK1 1000UMATP caliper IC50.
HPK1, sequence (Q92918 whole entry): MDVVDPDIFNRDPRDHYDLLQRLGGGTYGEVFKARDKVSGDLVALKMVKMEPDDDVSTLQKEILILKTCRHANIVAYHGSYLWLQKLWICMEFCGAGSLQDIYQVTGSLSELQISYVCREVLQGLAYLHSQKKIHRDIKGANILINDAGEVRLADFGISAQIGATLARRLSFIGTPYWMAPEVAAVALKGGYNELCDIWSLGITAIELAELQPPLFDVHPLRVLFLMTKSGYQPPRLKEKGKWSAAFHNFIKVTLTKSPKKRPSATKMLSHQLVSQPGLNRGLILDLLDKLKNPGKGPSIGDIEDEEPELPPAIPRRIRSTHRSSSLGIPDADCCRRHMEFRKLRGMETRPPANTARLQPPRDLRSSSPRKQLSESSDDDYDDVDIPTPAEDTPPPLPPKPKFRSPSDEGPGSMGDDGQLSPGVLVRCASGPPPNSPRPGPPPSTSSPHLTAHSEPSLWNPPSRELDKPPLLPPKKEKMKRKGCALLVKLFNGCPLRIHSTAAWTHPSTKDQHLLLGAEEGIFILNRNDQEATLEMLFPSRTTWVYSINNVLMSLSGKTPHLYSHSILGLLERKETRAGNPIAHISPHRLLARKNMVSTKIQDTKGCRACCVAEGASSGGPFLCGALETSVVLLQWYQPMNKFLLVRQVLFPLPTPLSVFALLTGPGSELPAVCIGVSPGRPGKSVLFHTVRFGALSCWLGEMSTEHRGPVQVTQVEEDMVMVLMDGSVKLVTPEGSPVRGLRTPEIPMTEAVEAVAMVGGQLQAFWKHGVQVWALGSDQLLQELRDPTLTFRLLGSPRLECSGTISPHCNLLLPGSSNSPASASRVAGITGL
In short: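 Ten-point compound titrations (top 3 μM final) preincubated 30 min with HPK1 and substrate, then reaction started with 1 mM ATP and 1 μM substrate, 5 mM MgCl2. After 60 min at RT, reaction terminated and product measured by microfluidic mobility shift.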
`O=C1NCc2c(-c3cnc4cc(F)ccn34)ccc(Nc3cc(C4CCOCC4)[nH]n3)c21` [I-381, 4-(7-fluoroimidazo [1,2-a]pyridin-3-yl)-7-((5-(tetrahydro-2H-pyran-4-yl)-1H-pyrazol-3-yl)amino)isoin-dolin-1-one] was tested, and the IC50 was less than 100 nM.
With `CN(C)CC1CN(c2ccc(Nc3ccc(-c4cnc5cc(F)ccn45)c4c3C(=O)NC4)nc2)CCO1` (stereo not drawn) [I-383, 7-((5-(2-((dimethylamino)-methyl)mor pholino)pyridin-2-yl)amino)-4-(7-fluoroimidazo [1,2-a]pyridin-3-yl)isoindolin-1-one] the IC50 was less than 100 nM.
`O=C1NCc2c(-c3cccn4ccnc34)ncc(Nc3ccc(N4CCC(O)CC4)cn3)c21` [I-384, 7-((5-(4-hydroxy-piperidin-1-yl)pyridin-2-yl)amino)-4-(imidazo[1,2-a]pyridin-8-yl)-2,3-dihydro-1H-pyrrolo[3,4-c]pyridin-1-one] was tested, and the IC50 was greater than 1000 nM.
For `CN(C)CC1(O)CCCN(c2ccc(Nc3ccc(-c4cnc5cc(F)ccn45)c4c3C(=O)NC4)nc2)C1` (stereo not drawn) [I-385, 7-((5-(3-((dimethylamino)-methyl)-3-hydroxypiperidin-1-yl)pyridin-2-yl)amino)-4-(7-fluoroimidazo [1,2-a]pyridin-3-yl)isoindolin-1-one], the IC50 was less than 100 nM.
Work on `CN(C)CCN1CCC(c2ccc(Nc3cnc(-c4ccnc5c4ccn5C)c4c3C(=O)NC4)nc2)CC1=O` (stereo not drawn) [I-386, 7-((5-(1-(2-(dimethylami-no)ethyl)-2-oxopiperidin-4-yl)pyridin-2-yl)amino)-4-(1-methyl-1H-pyrrolo[2,3-b]pyridin-4-yl)-2,3-dihydro-1H-pyrrolo[3,4-c]pyridin-1-one] yielded an IC50 of less than 100 nM.
`O=C1NCc2c(-c3cnc4cc(F)ccn34)ccc(Nc3ccc(N4CCC(O)(CN5CCCC5)CC4)cn3)c21` [I-387] was tested, and the IC50 was less than 100 nM.
`CN1CCN(CC2(O)CCCN(c3ccc(Nc4ccc(-c5cnc6cc(F)ccn56)c5c4C(=O)NC5)nc3)C2)CC1` (stereo not drawn) [I-388, 4-(7-fluoroimidazo [1,2-a]pyridin-3-yl)-7-((5-(3-hydroxy-3-((4-methylpiperazin-1-yl)methyl)piper-idin-1-yl)pyridin-2-yl)amino)isoin-dolin-1-one] was tested, and the IC50 was less than 100 nM.
Work on `Cc1cc(Nc2ccc(N3CCC(O)CC3)cn2)c2c(c1-c1cnc3cc(F)ccn13)CNC2=O` [I-389, 4-(7-fluoroimidazo [1,2-a]pyridin-3-yl)-7-((5-(4-hydroxypiperidin-1-yl)pyridin-2-yl)amino)-5-methylisoindol in-1-one] yielded an IC50 of less than 100 nM.
In the case of `Cn1ccc2c(-c3ncc(Nc4cccc(C5CCNCC5)n4)c4c3CNC4=O)ccnc21` [I-390, 4-(1-methyl-1H-pyrrolo[2,3-b]pyridin-4-yl)-7-((6-(piperidin-4-yl)pyridin-2-yl)amino)-2,3-dihydro-1H-pyrrolo[3,4-c]pyridin-1-one], the IC50 is reported as 100 to 1000 nM.
With `COC[C@]1(O)CCCN(c2ccc(Nc3ccc(-c4cnc5cc(F)ccn45)c4c3C(=O)NC4)nc2)C1` [I-393, (S)-4-(7-fluoroimidazo [1,2-a]pyridin-3-yl)-7-((5-(3-hydroxy-3-(methoxymeth-yl)piperidin-1-yl)pyridin-2-yl)amino)isoin-dolin-1-one] the IC50 was less than 100 nM.
For `COC[C@@]1(O)CCCN(c2ccc(Nc3ccc(-c4cnc5cc(F)ccn45)c4c3C(=O)NC4)nc2)C1` [I-394, (R)-4-(7-fluoroimidazo [1,2-a]pyridin-3-yl)-7-((5-(3-hydroxy-3-(methoxymeth-yl)piperidin-1-yl)pyridin-2-yl)amino)isoin-dolin-1-one], the IC50 was less than 100 nM.
With `O=C1NCc2c(-c3cnc4cc(F)ccn34)ccc(Nc3ccc(N4CC(O)CCC45CC5)cn3)c21` (stereo not drawn) [I-395, 4-(7-fluoroimidazo [1,2-a]pyridin-3-yl)-7-((5-(6-hydroxy-4-azaspiro[2.5]octan-4-yl)pyridin-2-yl)amino)isoin-dolin-1-one] the IC50 was less than 100 nM.
Work on `Cn1ncc(Nc2ccc(-c3cnc4cc(F)ccn34)c3c2C(=O)NC3)c1C1CCOCC1` [I-396] yielded an IC50 greater than 1000 nM.
`CC1(O)CCN(c2ccc(Nc3ccc(-c4cnc5cc(F)ccn45)c4c3C(=O)NC4)nc2)CC1` [I-397, 4-(7-fluoroimidazo [1,2-a]pyridin-3-yl)-7-((5-(4-hydroxy-4-methylpiperidin-1-yl)pyridin-2-yl)amino)isoin-dolin-1-one] showed an IC50 of less than 100 nM.
For `O=C1NCc2c(-c3cnc4cc(F)ccn34)ccc(Nc3ccc(N4CC[C@@H](O)[C@H](F)C4)cn3)c21` [I-399, 7-((5-((3R,4R)-3-fluoro-4-hydroxy-piperidin-1-yl)pyridin-2-yl)amino)-4-(7-fluoroimidazo [1,2-a]pyridin-3-yl)isoindolin-1-one], the IC50 was less than 100 nM.
`O=C1NCc2c(-c3cnc4cc(F)ccn34)ccc(Nc3ccc(N4CC[C@H](O)[C@@H](F)C4)cn3)c21` [I-400, 7-((5-((3S, 4S)-3-fluoro-4-hydroxy-piperidin-1-yl)pyridin-2-yl)amino)-4-(7-fluoroimidazo [1,2-a]pyridin-3-yl)isoindolin-1-one] showed an IC50 of less than 100 nM.
`CN1CCN(CC2(O)CCN(c3ccc(Nc4cnc(-c5ccnc6c5ccn6C)c5c4C(=O)NC5)nc3)CC2)CC1` [I-401, 7-((5-(4-hydroxy-4-((4-methylpiperazin-1-yl)methyl)piper-idin-1-yl)pyridin-2-yl)amino)-4-(1-methyl-1H-pyrrolo[2,3-b]pyridin-4-yl)-2,3-dihydro-1H-pyrrolo[3,4-c]pyridin-1-one] showed an IC50 of less than 100 nM.
`Cc1cccn2c(-c3ccc(Nc4ccc(N5CCC(O)(CN6CCN(C)CC6)CC5)cn4)c4c3CNC4=O)cnc12` [I-402, 7-((5-(4-hydroy-4-((4-methylpiperazin-1-yl)methyl)piper-idin-1-yl)pyridin-2-yl)amino)-4-(8-methylimidazo [1,2-a]pyridin-3-yl)isoindolin-1-one] showed an IC50 of less than 100 nM.
`CN1CCN(CC2(O)CCN(c3ccc(Nc4ccc(-c5cnc6ccccn56)c5c4C(=O)NC5)nc3)CC2)CC1` [I-403, 7-((5-(4-hydroxy-4-((4-methylpiperazin-1-yl)methyl)pip-eridin-1-yl)pyridin-2-yl)amino)-4-(imidazo[1,2-a]pyridin-3-yl)isoindolin-1-one] gave an IC50 of less than 100 nM.
Work on `O=C1NCc2c(-c3cnc4cc(F)ccn34)ccc(Nc3ccc(N4C[C@H]5CC[C@@H](C4)C5O)cn3)c21` (stereo partly drawn) [I-404, 4-(7-fluoroimidazo [1,2-a]pyridin-3-yl)-7-((5-((1R,5S)-8-hydroxy-3-azabicyclo [3,2.1]octan-3-yl)pyridin-2-yl)amino)isoin-dolin-1-one] yielded an IC50 of less than 100 nM.
In the case of `CN(C)CCN1CCC(c2ccc(Nc3ccc(-c4cnc5cc(F)ccn45)c4c3C(=O)NC4)nc2)CC1=O` (stereo not drawn) [I-406, 7-((5-(1-(2-(dimethylami-no)ethyl)-2-oxopiperidin-4-yl)pyridin-2-yl)amino)-4-(7-fluoroimidazo [1,2-a]pyridin-3-yl)isoindolin-1-one], the IC50 is reported as less than 100 nM.
With `CN1CCC(O)(c2cccc(Nc3cnc(-c4ccnc5c4ccn5C)c4c3C(=O)NC4)n2)CC1` [I-407, 7-((6-(4-hydroxy-1-methylpiperidin-4-yl)pyridin-2-yl)amino)-4-(1-methyl-1H-pyrrolo[2,3-b]pyridin-4-yl)-2,3-dihydro-1H-pyrrolo[3,4-c]pyridin-1-one] the IC50 was less than 100 nM.
Compound `Cn1nc(Nc2ccc(-c3cnc4cc(F)ccn34)c3c2C(=O)NC3)cc1C1CCOCC1` [I-408] has an IC50 of less than 100 nM.
`CN1CC(c2ccn3c(-c4ccc(Nc5ccc(N6CCC(O)CC6)cn5)c5c4CNC5=O)cnc3c2)C1` [I-411, 7-((5-(4-hydroxy-piperidin-1-yl)pyridin-2-yl)amino)-4-(7-(1-methylazetidin-3-yl)imidazo[1,2-a]pyridin-3-yl)isoindolin-1-one] showed an IC50 of less than 100 nM.
